Results on 13 molecules are retold here after patent US12577238B2, “Compositions and methods for modulating inflammatory and degenerative disorder” (University of Southern California, priority 2018, dated 2026).

“Also recorded” adds a separate entry of the source.

In experiment [1] the test system is pig articular cartilage explants. The experiment is described as follows: Matrix degradation assay, OSM-driven, pig articular cartilage explants. The format is cell-based. Conditions: driven by OSM. The method, then: FIG. 22A-C show matrix degradation assays.
72 hour exposure to the drug and OSM. […] Effect is concentration dependent and increases with increase in drug concentration.
(§1) Firstly, RCGD 423 was a hit from a library; this made the depth of the discovery surrounding the technology less comprehensive. Additionally, the physical properties of RCGD 423 (solubility, potency, functional groups) could be improved. Significant gains in these areas could potentially result in a first-in-class injectable for the treatment of post-traumatic OA. Moreover, the potential risks associated with promoting MYC stabilization and proliferation in gp130^+ cells as well as large increases in active STAT3 protein was of concern. […] These compounds were then screened in adult pig articular chondrocytes and cartilage explants, seeking compounds that could inhibit the catabolic effects of OSM but not drive increases in MYC and pSTAT3 protein levels. […] Together, these preliminary data identify CX-011 (B8) as a highly anti-inflammatory, anti-catabolic alternative to RCGD 423, with increased “drug-like” properties and reduced potential molecular liabilities.

For experiment [2], the system named is adult pig articular chondrocytes. Briefly: Western blot of signaling proteins (pSTAT3, MYC, MAPK, AKT, NF-κB) in pig articular chondrocytes. The format is cell-based. Conditions: for levels of active STAT3 (pSTAT3) and MYC proteins: Western blot, analogs at 10 μM; for activation of the MAPK, AKT and NF-κB pathways: adult pig articular chondrocytes. The method, then:
(A) Class 1 molecules (marked by red arrows) activate STAT3 and MYC signaling pathways wile Class 2 molecules (blue arrows) have no stimulatory effects on STAT3 and MYC signaling in chondrocytes as determined by western blot analysis. (B) Structures of the most prominent Class 1 and Class 2 molecules. […] All drugs were tested at 10 μM and assessed using Western Blot.
All drugs tested at 10 μM and assessed using Western Blot.
(§2) To begin to address the mechanism of action of RCGD 423, adult pig chondrocytes were incubated with the drug, IL-6 family cytokines or the pro-catabolic cytokines TNF-α and IL-1β and measured levels of various proteins downstream of these cytokines that are known to drive catabolic responses (FIG. 3).
as §1
In general terms: In western blotting, separated proteins are transferred to a membrane and probed.

For a further experiment, the system named is ADAMTS4/5 and MMP13. Briefly: qPCR for proteolytic enzymes in adult pig chondrocytes. The format is cell-based. The method, then:
as §2
A general note: Real-time PCR tracks product formation cycle by cycle.

Experiment [3] has as its target T1, gp130 (Homo sapiens, UniProt P40189).
T1 construct: endogenous in cells; host or cells: adult human articular chondrocytes (three donors)
T1 sequence (P40189 23-918): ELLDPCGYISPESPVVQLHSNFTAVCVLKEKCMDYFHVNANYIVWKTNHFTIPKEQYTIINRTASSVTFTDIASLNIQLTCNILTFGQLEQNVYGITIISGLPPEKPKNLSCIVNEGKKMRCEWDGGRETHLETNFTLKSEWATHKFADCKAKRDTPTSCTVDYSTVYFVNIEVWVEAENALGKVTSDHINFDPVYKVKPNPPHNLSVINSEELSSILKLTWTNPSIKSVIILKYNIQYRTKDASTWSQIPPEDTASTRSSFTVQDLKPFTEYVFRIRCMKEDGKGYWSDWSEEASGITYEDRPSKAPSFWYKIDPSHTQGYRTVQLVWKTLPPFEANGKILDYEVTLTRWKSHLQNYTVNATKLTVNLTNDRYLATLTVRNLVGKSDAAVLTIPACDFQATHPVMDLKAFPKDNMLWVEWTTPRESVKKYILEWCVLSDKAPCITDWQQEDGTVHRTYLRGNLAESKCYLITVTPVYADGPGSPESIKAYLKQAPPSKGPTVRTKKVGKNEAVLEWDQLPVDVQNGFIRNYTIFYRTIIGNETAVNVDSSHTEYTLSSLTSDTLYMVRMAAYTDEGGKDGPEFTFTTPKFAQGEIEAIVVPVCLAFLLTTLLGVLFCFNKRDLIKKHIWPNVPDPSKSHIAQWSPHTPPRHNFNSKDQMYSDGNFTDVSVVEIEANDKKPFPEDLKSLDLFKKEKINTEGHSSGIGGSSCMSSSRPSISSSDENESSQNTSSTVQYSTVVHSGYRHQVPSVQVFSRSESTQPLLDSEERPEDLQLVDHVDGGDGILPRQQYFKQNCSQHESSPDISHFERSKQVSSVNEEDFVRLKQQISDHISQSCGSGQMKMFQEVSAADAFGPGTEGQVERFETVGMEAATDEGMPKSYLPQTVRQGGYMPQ
The experiment is described as follows: OSM-mediated activation of gp130 in adult human articular chondrocytes. The format is cell-based. The settings on record: three independent donors. The text has this:
423F is the positive control drug. Adult human articular chondrocytes from three independent donors were used to generate the results.
Adult human articular chondrocytes from three independent donors were used to generate the results.
Adult human articular chondrocytes from three independent donors were used.

Experiment [4] addresses T2, gp130 (Rattus norvegicus, UniProt P40190).
T2 construct: from tissue; host or cells: rat knee joint in vivo (Sprague-Dawley wild-type in the CFA model)
T2 sequence (P40190 23-918): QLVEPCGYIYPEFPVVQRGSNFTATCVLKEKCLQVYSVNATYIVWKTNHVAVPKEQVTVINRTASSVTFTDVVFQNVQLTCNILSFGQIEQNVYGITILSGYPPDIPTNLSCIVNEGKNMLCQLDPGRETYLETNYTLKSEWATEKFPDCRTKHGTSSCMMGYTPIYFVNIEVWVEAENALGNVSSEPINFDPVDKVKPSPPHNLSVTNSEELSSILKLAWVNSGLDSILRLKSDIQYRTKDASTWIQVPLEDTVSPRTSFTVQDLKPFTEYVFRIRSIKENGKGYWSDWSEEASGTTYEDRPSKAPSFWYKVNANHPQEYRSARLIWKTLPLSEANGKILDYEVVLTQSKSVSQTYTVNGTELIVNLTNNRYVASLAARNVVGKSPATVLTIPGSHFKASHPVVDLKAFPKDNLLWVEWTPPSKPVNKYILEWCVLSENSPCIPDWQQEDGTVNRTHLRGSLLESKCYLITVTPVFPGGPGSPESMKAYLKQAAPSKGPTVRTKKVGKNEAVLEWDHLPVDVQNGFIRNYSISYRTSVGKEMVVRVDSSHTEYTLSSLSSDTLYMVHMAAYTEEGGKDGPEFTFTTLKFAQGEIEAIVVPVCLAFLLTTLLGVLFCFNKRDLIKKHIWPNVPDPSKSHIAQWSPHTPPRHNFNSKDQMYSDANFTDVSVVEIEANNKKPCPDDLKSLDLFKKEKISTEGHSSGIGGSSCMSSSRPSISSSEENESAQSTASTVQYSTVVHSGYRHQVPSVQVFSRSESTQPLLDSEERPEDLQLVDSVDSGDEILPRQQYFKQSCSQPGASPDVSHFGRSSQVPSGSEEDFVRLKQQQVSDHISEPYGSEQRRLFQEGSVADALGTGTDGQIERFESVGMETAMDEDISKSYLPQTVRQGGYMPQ
Briefly: Injection into rat knees, pSTAT3 and MYC levels. The format is in vivo. Conditions: co-injection with RCGD 423 into rat knees. The protocol: Based on this, it was hypothesized that RCGD 423 acts through gp130 by promoting stable homodimers in the absence of ligand. To confirm that RCGD 423 acts through gp130, the gp130 null cell line Ba/F3 cells was used. Ba/F3 cells were transfected with either full-length gp130 or a mutant gp130 lacking domain 2 (ΔD2), which contains the predicted binding site for RCGD 423 (FIG. 7). […] To verify the specificity of RCGD 423 in vivo, the compound was injected into rat knees in the presence of the small molecule gp130 inhibitor SC144 or a blocking antibody specific for domain 2 of gp130. […] The ability of RCGD 423 to act via inducing formation of gp130 homodimers was then examined by expressing tagged versions of gp130 in 293T cells. In this system, only homodimeric complexes can contain both tagged versions of gp130 (FIG. 9).

For experiment [5], the system named is adult pig articular chondrocytes. The experiment is described as follows: Proteins mediating pro-inflammatory signals with or without OSM. The format is cell-based.
Description: as §1

The test system of another experiment is MMP13 and ADAMTS4. Briefly: OSM-induced MMP13 and ADAMTS4 levels. The format is cell-based.

With `Cc1ccc(-c2cccc(NC(=O)c3ccno3)n2)cc1` [B810], the “breakdown of collagen and aggrecan (aggrecan-neo, collagen-neo epitopes)” value (shortened to “breakdown of collagen and aggrecan”) in experiment [1] is “can also strongly prevent the breakdown of collagent and aggrecan”. Besides, in experiment [2], the “levels of active STAT3 (pSTAT3) and MYC proteins” value (“levels of active STAT3” below) was “pSTAT3 and MYC activating”.
Turning to `Cc1ccc(-c2csc(NC(=O)c3oncc3C)n2)cc1` [B840], the “breakdown of collagen and aggrecan” value in experiment [1] is “can also strongly prevent the breakdown of collagent and aggrecan”. For the same molecule, the “levels of active STAT3” value in experiment [2] is “pSTAT3 and MYC activating”.
For `Cc1ccccc1-c1cccc(NC(=O)c2ccno2)n1` [B849], the “breakdown of collagen and aggrecan” value in experiment [1] is “can still strongly prevent the breakdown of collagen and aggrecan”.
In the case of IL-6: IL-6 family cytokine, the “expression of proteolytic enzymes ADAMTS4/5 and MMP13” value in the experiment with ADAMTS4/5 and MMP13 is given as “significant increases in the expression of these genes”. Also, in experiment [2], the “levels of active STAT3” value is “increased levels of active STAT3 and MYC proteins”; the “activation of the MAPK, AKT and NF-κB pathways” value is “activated the MAPK, AKT and NF-κB pathways”.
`Cc1ccc(-c2csc(NC(=O)c3cnco3)n2)cc1` [B803]: on gp130 [3], the “OSM-mediated activation of gp130” value was “inhibit OSM-mediated activation of gp130; also recorded: inhibit OSM-mediate d activation of gp130”.
For the molecule `Cc1ccccc1-c1csc(NC(=O)c2ccno2)n1` [B815], the “OSM-mediated activation of gp130” value on gp130 [3] is “inhibit OSM-mediated activation of gp130; also recorded: inhibit OSM-mediate d activation of gp130”.
Turning to “LIF: leukemia inhibitory factor, IL-6 family cytokine”, in the experiment on ADAMTS4/5 and MMP13, the “expression of proteolytic enzymes ADAMTS4/5 and MMP13” value was “significant increases in the expression of these genes”. In addition, in experiment [2], the “levels of active STAT3” value was “increased levels of active STAT3 and MYC proteins”; the “activation of the MAPK, AKT and NF-κB pathways” value was “activated the MAPK, AKT and NF-κB pathways”.
Turning to `O=C(NNc1nc2cc(F)ccc2n2cccc12)c1cnccn1` [SC144], the “blockade of signaling downstream of RCGD 423” value at gp130 [4] is given as “completely inhibited signaling downstream of RCGD 423; also recorded: could be blocked by co-injection”.
Regarding `Cc1ccc(-c2cccc(NC(=O)c3ccccn3)n2)cc1` [B839], the “breakdown of collagen and aggrecan” value in experiment [1] is “strongly prevent the breakdown of collagen and aggrecan”.
In the case of `O=C(Nc1nc(C2CC2)cs1)c1ccno1` [B826], the “breakdown of collagen and aggrecan” value in experiment [1] was “can still strongly prevent the breakdown of collagen and aggrecan”. In addition, at gp130 [3], the “OSM-mediated activation of gp130” value is “strongly inhibits OSM-mediated activation of gp130”.
Regarding `Cc1ccc(-c2csc(NC(=O)c3ccno3)n2)cc1` [B8], the “breakdown of collagen and aggrecan” value is “prevents the breakdown of collagen and aggrecan” in experiment [1] (listed as CX-011); “almost completely blocked the generation of aggrecan and collagen neoepitopes” in experiment [1] (listed as CX-011 (B8)). For the same molecule, the “increase in catalytic enzymes / induction of proteolytic gene expression” value in experiment [1] (listed as CX-011) is “prevents”; in experiment [1] (listed as CX-011 (B8)) it was “reduced the induction of proteolytic gene expression”. Further, the “OSM-mediated activation of gp130” value at gp130 [3] is reported as “inhibit OSM-mediated activation of gp130”. Also, the “levels of active STAT3” value in experiment [2] (listed as CX-011) was “do not affect levels of pSTAT3 or MYC protein”; in experiment [2] (listed as CX-011 (B8)) it was “did not increase levels of pSTAT3 and MYC”. The “increases in proteins mediating pro-inflammatory signals” value in experiment [5] (in the presence of OSM) is reported as “strongly inhibits increases in these proteins in the presence of OSM”. Moreover, the “endogenous levels of proteins mediating pro-inflammatory signals” value in experiment [5] (without OSM) is “little effect”.
Consider `Cc1ccc(-c2nc(NC(=O)c3ccccn3)cs2)cc1` [B843], for which the “breakdown of collagen and aggrecan” value in experiment [1] is “can still strongly prevent the breakdown of collagen and aggrecan”.

B1: OSM: pro-inflammatory cytokine oncostatin M (protein, UniProt P13725 26-221, looked up)
Oncostatin-M: AAIGSCSKEYRVLLGQLQKQTDLMQDTSRLLDPYIRIQGLDVPKLREHCRERPGAFPSEETLRGLGRRGFLQTLNATLGCVLHRLADLEQRLPKAQDLERSGLNIEDLEKLQMARPNILGLRNNIYCMAQLLDNSDTAEPTKAGRGASQPPTPTPASDAFQRKLEGCRFLHGYHRFMHSVGRVFSKWGESPNRSRR
As for B1, the “levels of MMP13 and ADAMTS4 (degradation of cartilage matrix proteins)” value in the experiment on MMP13 and ADAMTS4 was “upregulates levels of MMP13 and ADAMTS proteases”.
